Laboratory results published in ChEMBL document CHEMBL1201862, “PubChem BioAssay data set” (2004).
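48-hour exposure; five concentrations; linearly interpolated endpoints. GI50 is the concentration that inhibits growth by half.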 The source made the active and inactive calls. No stated cut-off is given here; in the data, active = GI50 up to about 1.1 µM and inactive = higher.

How the values were obtained:
Test in all cases: inhibition of tumour cell growth, NCI panel, 48 h
MDA-MB-435 = test system: MDA-MB-435
CCRF-CEM = test system: CCRF-CEM
NCI/ADR-RES = test system: NCI/ADR-RES
HCT-15 = test system: HCT-15
SNB-19 = test system: SNB-19
CAKI-1 = test system: CAKI-1
HT-29 = test system: HT-29
UACC-62 = test system: UACC-62
EKVX = test system: EKVX
OVCAR-5 = test system: OVCAR-5
LOX IMVI = test system: LOX IMVI
DU-145 = test system: DU-145
U-251 = test system: U-251
SR = test system: SR
NCI-H226 = test system: NCI-H226
T47D = test system: T47D
RXF 393 = test system: RXF 393
SK-MEL-2 = test system: SK-MEL-2
MOLT-4 = test system: MOLT-4
HCC 2998 = test system: HCC 2998

SMILES	GI50 (MDA-MB-435)	GI50 (CCRF-CEM)	GI50 (NCI/ADR-RES)	GI50 (HCT-15) [µM]	GI50 (SNB-19)	GI50 (CAKI-1)	GI50 (HT-29)	GI50 (UACC-62)	GI50 (EKVX)	GI50 (OVCAR-5)	GI50 (LOX IMVI)	GI50 (DU-145)	GI50 (U-251)	GI50 (SR)	GI50 (NCI-H226)	GI50 (T47D)	GI50 (RXF 393)	GI50 (SK-MEL-2)	GI50 (MOLT-4)	GI50 (HCC 2998)
O=C(O)c1nc(-c2ccccc2)[nH]c1C(=O)O	8.87 µM (inactive)	0.577 µM (active)	27.7 µM (inactive)	14.3	12.5 µM (inactive)	14.4 µM (inactive)	7.03 µM (inactive)	17.2 µM (inactive)	17.4 µM (inactive)	17.2 µM (inactive)	3.01 µM (inactive)	15 µM (inactive)	4.18 µM (inactive)	0.0188 µM (active)	14.8 µM (inactive)	15.3 µM (inactive)	13.5 µM (inactive)	7.76 µM (inactive)	1.04 µM (active)	5.94 µM (inactive)
CSc1ncc2c(n1)sc1c(=O)n(-c3ccccc3)cnc12	> 100 µM (inactive)	> 100 µM (inactive)	> 100 µM (inactive)	> 100	> 100 µM (inactive)	> 100 µM (inactive)	> 100 µM (inactive)	> 100 µM (inactive)	–	> 100 µM (inactive)	> 100 µM (inactive)	> 100 µM (inactive)	> 100 µM (inactive)	> 100 µM (inactive)	> 100 µM (inactive)	> 100 µM (inactive)	> 100 µM (inactive)	> 100 µM (inactive)	> 100 µM (inactive)	> 100 µM (inactive)
CC(C)CNP(=O)(NCC(C)C)Oc1ccc(CC(NC(=O)OCc2ccccc2)C(=O)OCc2ccccc2)cc1 (configuration not stated)	10 µM (inactive)	4.99 µM (inactive)	28.8 µM (inactive)	26.9	25.2 µM (inactive)	> 100 µM (inactive)	17.2 µM (inactive)	18.5 µM (inactive)	34.8 µM (inactive)	> 100 µM (inactive)	16.1 µM (inactive)	9.46 µM (inactive)	16.5 µM (inactive)	6.17 µM (inactive)	56.1 µM (inactive)	13.4 µM (inactive)	18.5 µM (inactive)	18.5 µM (inactive)	13.9 µM (inactive)	16.8 µM (inactive)
Cn1c2ccc([N+](=O)[O-])cc2c(=O)c2c(O)cc(O)cc21	> 100 µM (inactive)	> 100 µM (inactive)	17 µM (inactive)	60.3	18.1 µM (inactive)	43 µM (inactive)	–	54.5 µM (inactive)	5.94 µM (inactive)	> 100 µM (inactive)	37.1 µM (inactive)	47.8 µM (inactive)	15.7 µM (inactive)	19.2 µM (inactive)	53.2 µM (inactive)	45.2 µM (inactive)	25.7 µM (inactive)	> 10 µM (inactive)	45.2 µM (inactive)	> 100 µM (inactive)
CCN1c2cc(Br)cc3[nH]c(=O)n(c23)CCC1C (configuration not stated)	4.18 µM (inactive)	12 µM (inactive)	5.7 µM (inactive)	14.5	23.2 µM (inactive)	11.6 µM (inactive)	15.6 µM (inactive)	5.16 µM (inactive)	1.43 µM (inactive)	20.2 µM (inactive)	11.5 µM (inactive)	18.3 µM (inactive)	14.8 µM (inactive)	6.56 µM (inactive)	15.8 µM (inactive)	17.4 µM (inactive)	11.6 µM (inactive)	15.6 µM (inactive)	4.32 µM (inactive)	15.6 µM (inactive)
CC(=O)OC/C=C(/C=C/CNC1CCCCC1)OC(C)=O	16 µM (inactive)	4.34 µM (inactive)	19.6 µM (inactive)	19.2	24.5 µM (inactive)	13.8 µM (inactive)	18.6 µM (inactive)	19.1 µM (inactive)	16.5 µM (inactive)	16.3 µM (inactive)	19.1 µM (inactive)	17 µM (inactive)	17.8 µM (inactive)	10.7 µM (inactive)	25.9 µM (inactive)	7.26 µM (inactive)	17.9 µM (inactive)	19.8 µM (inactive)	36.2 µM (inactive)	23.4 µM (inactive)
CC(C)(C)c1cc(OCc2nnc(S)n2N)c(Cl)cc1OCc1nnc(S)n1N	39.5 µM (inactive)	22.9 µM (inactive)	> 100 µM (inactive)	55.8	42.1 µM (inactive)	> 100 µM (inactive)	43.9 µM (inactive)	20.7 µM (inactive)	49.7 µM (inactive)	63.7 µM (inactive)	34.8 µM (inactive)	59 µM (inactive)	29.7 µM (inactive)	22.3 µM (inactive)	> 100 µM (inactive)	30.6 µM (inactive)	26.2 µM (inactive)	18.4 µM (inactive)	22.6 µM (inactive)	31.1 µM (inactive)
C[N+]1(CCCCN2c3ccccc3Sc3cc(N=[N+]=[N-])ccc32)CCN(C(=O)CCNC(=O)Cc2ccc(C(=O)c3ccccc3)cc2)CC1	26.4 µM (inactive)	23.3 µM (inactive)	35.9 µM (inactive)	22.8	26.9 µM (inactive)	25.2 µM (inactive)	18.1 µM (inactive)	28.5 µM (inactive)	31.9 µM (inactive)	21.7 µM (inactive)	20.3 µM (inactive)	19.1 µM (inactive)	21.6 µM (inactive)	18.7 µM (inactive)	36.1 µM (inactive)	21.3 µM (inactive)	31.5 µM (inactive)	29.4 µM (inactive)	23.1 µM (inactive)	16.1 µM (inactive)
C=C1C(=O)OC2CC(C)C3(O)CCC(=O)C3(C)CC12 (configuration not stated)	39.7 µM (inactive)	33.8 µM (inactive)	32.4 µM (inactive)	14.9	18.7 µM (inactive)	17.5 µM (inactive)	20.2 µM (inactive)	44.3 µM (inactive)	27.2 µM (inactive)	23.6 µM (inactive)	31.8 µM (inactive)	31.9 µM (inactive)	38.1 µM (inactive)	23.2 µM (inactive)	64 µM (inactive)	40.4 µM (inactive)	21.8 µM (inactive)	22.2 µM (inactive)	22.2 µM (inactive)	23 µM (inactive)
CCN1CN(c2ccccc2)C2(CCN(CC(CC3OCCO3)c3ccc(F)cc3)CC2)C1=O (configuration not stated)	14.8 µM (inactive)	3.65 µM (inactive)	10.5 µM (inactive)	16.3	20.6 µM (inactive)	3.18 µM (inactive)	1.34 µM (inactive)	18.1 µM (inactive)	6.7 µM (inactive)	6.5 µM (inactive)	7.43 µM (inactive)	4.2 µM (inactive)	14.9 µM (inactive)	33 µM (inactive)	13.5 µM (inactive)	5.13 µM (inactive)	16.2 µM (inactive)	20.1 µM (inactive)	4.99 µM (inactive)	9.93 µM (inactive)
CC1=CC(C)C(C)N(CCNC(=O)Nc2ccccc2)c2ccccc21 (configuration not stated)	25.1 µM (inactive)	20.7 µM (inactive)	18.2 µM (inactive)	21.9	20.3 µM (inactive)	19.5 µM (inactive)	12 µM (inactive)	13.6 µM (inactive)	25.9 µM (inactive)	19.5 µM (inactive)	6.81 µM (inactive)	32.7 µM (inactive)	–	16.3 µM (inactive)	22.1 µM (inactive)	21.3 µM (inactive)	11.5 µM (inactive)	23.1 µM (inactive)	20 µM (inactive)	18.1 µM (inactive)
COC1C(OC(=O)/C=C/C=C/C=C/C=C/C(=O)O)CCC2(CO2)C1C1(C)OC1CC=C(C)C (configuration not stated)	14.6 µM (inactive)	21.4 µM (inactive)	> 63.8 µM (inactive)	24.2	> 56.1 µM (inactive)	43.8 µM (inactive)	21.1 µM (inactive)	16.1 µM (inactive)	27.2 µM (inactive)	> 78.2 µM (inactive)	17.4 µM (inactive)	35.2 µM (inactive)	18.5 µM (inactive)	20.6 µM (inactive)	42.8 µM (inactive)	18.4 µM (inactive)	48.8 µM (inactive)	5.01 µM (inactive)	25.4 µM (inactive)	26 µM (inactive)
CCOC(=O)CNC(=O)C(CSC(=O)N(O)c1ccc(Cl)cc1)NC(=O)CCC(N)C(=O)OCC (configuration not stated)	30.1 µM (inactive)	> 50 µM (inactive)	> 50 µM (inactive)	> 50	9.53 µM (inactive)	> 50 µM (inactive)	> 50 µM (inactive)	> 50 µM (inactive)	12.5 µM (inactive)	> 50 µM (inactive)	> 50 µM (inactive)	> 50 µM (inactive)	> 50 µM (inactive)	43.5 µM (inactive)	1.32 µM (inactive)	> 50 µM (inactive)	> 50 µM (inactive)	> 50 µM (inactive)	19.3 µM (inactive)	4.75 µM (inactive)
CC(=O)OC1(C)CC(C)C(=O)C(C(O)CC2CC(=O)NC(=O)C2)C1 (configuration not stated)	0.0148 µM (active)	0.00507 µM (active)	0.0386 µM (active)	0.0348	0.0141 µM (active)	0.0875 µM (active)	0.00798 µM (active)	0.082 µM (active)	0.0253 µM (active)	0.0206 µM (active)	0.013 µM (active)	0.0118 µM (active)	0.00697 µM (active)	0.00185 µM (active)	0.0448 µM (active)	0.0179 µM (active)	0.01 µM (active)	0.00752 µM (active)	0.00444 µM (active)	0.01 µM (active)
